How the values were obtained:
[1] = system: liver cancer patient-derived cancer fragments (HCC cube) confirmed to express TM4SF5; experiment: TM4SF5-expressing HCC-PDX (patient-derived tissue xenograft) model; format: in vivo, NOD/SCID mice; conditions: for body weight: 5 mg/kg IP twice a week (FIG. 21c); for tumor volume: vs vehicle (FIG. 21c); for PD-L1 expression / SLAMF7 staining / expression of TM4SF5: immunohistochemistry (FIG. 21e); for expressions of Ki67, AFP, F4/80, CCL2 and CCL5, and laminin γ2: immunohistochemistry (FIG. 21d); for cancer formation: immunohistochemistry or H&E staining (FIG. 21d)
Method: The experiment was conducted by obtaining patient-derived liver cancer segments (P0; HCC cube, 1 mm^3) confirmed to express TM4SF5 from Seoul National University Hospital, which passed the normal IRB approval process (H-2102-059-1195). The hair from the right thigh to the flank of 6-week-old male NOD/SCID mice was removed, and the mice were anesthetized by inhalation with […] isoflurane. Thereafter, a cancer segment was implanted into the right […] of the mice. When the cancer segments were engrafted and grew beyond a certain size at 4 to 5 weeks after implanting the tissue, the animals were sacrificed to obtain cancer segments (P1). The cancer segments were cut into a size of 1 mm^3 and placed in cryotubes with Recovery-Cell Culture Freezing Medium (Gibco) and stored in a […] liquid nitrogen tank. After obtaining P2 and P3 cancer segments in the same manner as above, one P3 cancer segment (1 mm^3) was implanted per 6-week-old male NOD/SCID mouse to establish the HCC-PDX mouse model used in this experiment. From the 8th day after implanting the cancer segments, vehicle, drug ST-5-001, or ST-5-002 was intraperitoneally injected at 5 mg/kg twice a week for a total of 6 times. On the 28th day after implanting the cancer tissue, the animals were sacrificed, and liver cancer tissues were obtained and used for analysis.
(a-d) A TM4SF5-expressing HCC-PDX model was established by implanting liver cancer patient-derived cancer fragments (HCC cube, 1 mm^3), confirmed to express TM4SF5, into the right thigh of 6-week-old male NOD/SCID mice (n=8) deficient in T, B, and NK immune cells. Starting from the 8th day after the tissue implantation, vehicle, drug ST-5-001, or ST-5-002 was intraperitoneally injected at 5 mg/kg twice a week on the indicated dates (a). After 6 injections, the animals were sacrificed on the 28th day after the cancer tissue implantation, liver tissues were obtained, and images of the livers were taken (b). From the 8th day after the implantation, body weight and tumor volume were measured and recorded on each drug injection day (c). Meanwhile, for a portion of the liver tissues, the expression level, distribution, and localization of each factor, as well as the degree of damage to the liver cancer tissue, were confirmed through immunohistochemistry or H&E staining for the given protein factors (d).

[2] = system: SNU761 cells expressing HA-TM4SF5 and FLAG-SLAMF7; experiment: Immunofluorescence microscopy of SLAMF7 localization (Pearson's correlation); format: cell-based, human; conditions: 2.5 µM, 24 h, vs DMSO (FIG. 15g-h)
Method: After putting a cover glass into each well of a 12-well plate, 10 µg/ml fibronectin (35600, BD Biosciences) diluted in PBS was added thereto and left at room temperature for 1 hour for coating. After washing three times with PBS, 20,000 cells were seeded on each cover glass and cultured in a cell incubator at 37°C for 16 hours. After cultivation, the various expression vectors mentioned above were transfected using Lipofectamine 3000 (L3000015, Invitrogen) and cultured for 24 hours, and then isoxazole was treated or not treated for 24 hours. The cells were fixed with cold 99% methanol at room temperature for 15 minutes and then blocked with 1% BSA in PBS for 1 hour. Primary antibodies, anti-FLAG (NB600-344, Novus Biologicals), anti-LAMP1 (#9091, Cell Signaling Tech,), anti-ZO-1 (402200, Invitrogen), anti-HA (901515, BioLegend), and anti-SLAMF7 (sc-390840, Santa Cruz Biotech.), were diluted in 1% BSA in PBS at a ratio of 1:500 and reacted at 4°C for 16 hours. The next day, the cover glasses were washed three times with PBS, and then fluorescence-conjugated secondary antibodies (Alexa Fluor 488 [goat: A11055 and mouse: A21202] and 555 [goat: A21432 and mouse: A31570] from Invitrogen) were diluted in 1% BSA in PBS at a ratio of 1:500 and reacted at room temperature for 1 hour. After washing three times with PBS, mounting was performed using ProLong™ Gold Antifade (P36930, Invitrogen). Cells were randomly photographed using a Nikon Eclipse Ti microscope with a C2 confocal system, and then the images were analyzed using NIS-Elements software (Nikon, Melville, NY, USA), and colocalization of SLAMF7 with LAMP1 or ZO-1 was calculated using Pearson's correlation coefficients. All images were photographed under the same software settings and equally corrected with Adobe Photoshop. Each dot in the graphs represents a result measured from a single cell.
SNU449-TM4SF5 cells overexpressing TM4SF5 were seeded on cover glasses pre-coated with collagen Type I (10 µg/ml), and 15 hour later, PD-L1-HA cDNA was transfected using Lipofectamine 3000 (Thermo Fisher). […] After reacting again with secondary antibodies at room temperature for 30 minutes (TRITC fluorescence for LAMP1, TRITC or Alexa Fluor® 488 fluorescence for TM4SF5, and FITC fluorescence for PD-L1 or SLAMF7), the expression levels, localizations, and colocalizations (indicated in yellow) of the fluorescently-stained factors were observed using a confocal fluorescence microscope.
(a) SNU761 cells expressing HA-EV or HA-TM4SF5 and FLAG-SLAMF7 were stored at 4°C and then cultured at 37°C for the given periods. […] The colocalization coefficient was calculated by Pearson's correlation (b). […]

Compound | body weight [1] | tumor volume ([1]; 5 mg/kg IP twice a week) | PD-L1 expression [1] | SLAMF7 staining [1] | expression of TM4SF5 [1] | expressions of Ki67, AFP, F4/80, CCL2 and CCL5, and laminin γ2 [1] | cancer formation [1] | SLAMF7 colocalized at the lysosomal membrane [2] | SLAMF7 expression/localization at the plasma membrane (PM) [2] | inhibitory effect on liver cancer formation ([1]; 5 mg/kg IP twice a week, 6 times, images (FIG. 21b))
CC(=O)Nc1ccc(-c2cc(-c3ccc(O)cc3)no2)cc1 [ST-5-001, N-(4-(3-(4-hydroxyphenyl)isoxazole-5-yl)phenyl)acetamide] | not affected | significantly reduced | decrease | infiltrating into the cancer site | not significantly different | significantly inhibited and lowered | inhibited | decreased | rather increased | –
Cc1ccc(C(=O)Nc2ccc(-c3cc(-c4ccc(O)cc4)no3)cc2)cc1 [ST-5-002, N-(4-(3-(4-hydroxyphenyl)isoxazole-5-yl)phenyl)-4-methylbenzamide] | not affected | significantly reduced | decrease | infiltrating into the cancer site | not significantly different | significantly inhibited and lowered | inhibited | decreased | rather increased | distinct
